# In patent publication US20090221664A1, “PHARMACEUTICAL COMPOSITIONS OF MUSCARINIC RECEPTOR ANTAGONISTS” (priority 2005, published 2009):
# Test system: carbachol precontracted guinea-pig isolated trachea
# Test: In-vitro functional assay: relaxation of carbachol precontracted guinea-pig isolated trachea by PDE-IV inhibitors with or without MRA preincubation
# Details: for Potentiation of relaxant activity by preincubation with C No. 66: C No. 66 at 1 nM before contraction with carbachol
# Procedure: Guinea Pigs (400-600 gm) were procured and trachea was removed under anesthesia (sodium pentobarbital, 300 mg/kg i.p) and immediately kept in ice-cold Krebs Henseleit buffer. Indomethacin (10 uM) was present throughout the KH buffer to prevent the formation of bronchoactive prostanoids.
# The tissue of adherent fascia was removed and cut into strips of equal size (with approx. 4-5 tracheal rings in each strip). The epithelium was removed by careful rubbing, minimizing damage to the smooth muscle. […] Opposite ends of the cut rings were tied with the help of a thread. The tissue was mounted in isolated tissue baths containing 10 ml Krebs Henseleit buffer maintained at 37° C. and bubbled with carbogen, at a basal tension of 1 gm. The buffer was changed 4-5 times for about an hour. Equilibration of the tissue was done for 1 hr for stabilization. After 1 hr, the tissue was challenged with 1 μM carbachol. This was repeated after every 2-3 washes till two similar consecutive responses were obtained. At the end of stabilization, the tissues were incubated with suboptimal dose of MRA/Vehicle for 20 minutes prior to contraction of the tissues with 1 μM carbachol. The relaxant activity of the PDE-IV inhibitor [10^−9M to 10^−4 M] on the stabilized developed tension/response was subsequently assessed. The contractile response of tissues was recorded either on Powerlab data acquisition system or on Grass polygraph (Model 7). The relaxation was expressed as percentage of maximum carbachol response and EC25 was calculated as the concentration producing 25% of the maximum relaxation to 1 μM carbachol. The percent relaxation between the treated and control tissues were compared using non-parametric unpaired t-test. A p value of <0.05 is considered to be statistically significant.
# [1] = PDE-IV inhibitor alone, concentration producing 25% of the maximum relaxation to 1 μM carbachol
# [2] = relaxation by the PDE-IV inhibitor in the presence of C No. 66 (1 nM preincubation), 1 μM carbachol
SMILES,Potentiation of relaxant activity by preincubation with C No. 66,- Log[EC25] [1],EC25 [1] [µM],- Log[EC25] [2]
"COc1ccc(C2=NO[C@]3(CCOC3)C2)cc1OC1CCCC1 [Compound No. 124aa, (S)-3-[3-(cyclopentyloxy)-4-methoxyphenyl]-1,7-dioxa-2-azaspiro[4.4]non-2-ene]",potentiated,4.40,41.8,5.53
O=C(Nc1c(Cl)cncc1Cl)c1ccc(OC(F)F)c(OCC2CC2)c1 [Roflumilast],potentiated,4.46,44.2,6.25
COc1ccc(C2CNC(=O)C2)cc1OC1CCCC1 (centres unmarked) [Rolipram],no significant potentiation,5.25,7.6,–
